Source: patent US5616615A, “Enaminone esters” (priority 1995, dated 1997)
Like-named read-outs stand apart in the source and are kept apart here.

Legend:
seizures = assay: Anticonvulsant evaluation (ASP phase I / overall); format: in vivo, mice; conditions: Mus musculus, ip, read-out: ASP Classification
Protocol: (§1) The first phase of the ADD Program involved performing tests on male Carworth Farms #1 mice. […] Three tests were performed:
(§2) Maximal electroshock seizures are elicited with a 60-cycle alternating current of 50 mA intensity (5-7 times that necessary to elicit minimal electroshock seizures) delivered via corneal electrodes for 0.2 seconds. A drop of 0.9% saline is instilled in the eye prior to application of the electrodes in order to […].
The animal is observed for 30 minutes.

[1] = test system: Maximal electroshock seizures; assay: MES maximal electroshock seizure test, mice ip; format: in vivo; conditions: Mus musculus, ip
Protocol: Three tests were performed:
1. MES--Electroshock Seizure Test
as §2

[2] = test system: Subcutaneous Pentylenetetrazol seizure; assay: sc Met subcutaneous pentylenetetrazol (Metrazol) seizure test, mice; format: in vivo; conditions: Mus musculus, sc
[3] = Tox rotorod neurotoxicity, mice ip; conditions: for Tox, animals exhibiting toxicity/tested: 300 mg/kg; for Tox (rotorod), animals toxic/tested: 100 mg/kg
Protocol: as §1
In the second phase of the ADD program protocol, estimates of anticonvulsant activity and neurotoxicity are quantified. The median effective dose (ED50) in the MES, sc Met, and rotorod test is determined. In the case of a compound with apparent activity in only one anticonvulsant test, testing is carried out in the other up to, and in some cases beyond, doses which produce neurological deficit. Compounds which fail to produce minimal neurological deficit are tested whenever possible to doses ten times their lowest anticonvulsant ED50. […] The rotorod ED50 is determined at the time of the peak neurologic deficit.

[4] = test system: Maximal electroshock seizures; assay: Phase VI oral MES test, rats; format: in vivo; conditions: Rattus norvegicus, oral, 50 mg/kg, read-out: MES, animals protected/tested (converted)
Text: as §2
(§3) This oral screen is designated as phase VI.

in vivo = conditions: rat, po, 50 mg/kg
Text: as §3

[5] = 0.5 h, 300 mg/kg, 30 min, read-out: MES, animals protected/tested
[6] = 2 h, Phase II, 100 mg/kg, 2.00 h, read-out: MES, animals protected/tested (converted)
[7] = 3 h, Phase II, 100 mg/kg, 3.00 h, read-out: MES, animals protected/tested (converted)
[8] = 4 h, 300 mg/kg, 4 h, read-out: MES, animals protected/tested
[9] = 0.5 h, 300 mg/kg, 30 min, read-out: scMet, animals protected/tested (converted)
[10] = 4 h, 300 mg/kg, 4 h, read-out: scMet, animals protected/tested (converted)
[11] = 0.5 h, 100 mg/kg, 30 min, read-out: MES, animals protected/tested (converted)
[12] = 4 h, 100 mg/kg, 4 h, read-out: MES, animals protected/tested (converted)
[13] = 0.5 h, 30 min, read-out: scMet, animals protected/tested (converted)
[14] = 4 h, 4 h, read-out: scMet, animals protected/tested (converted)

CC1(C)CC(=O)C=C(NCCc2ccccc2)C1 [Compound 145] gave a minimal effective dose (seizures) of over 100 mg/kg, a responders at 100 mg/kg ([1]; 0.25 h, read-out: MES, animals protected/tested) of 0% and a responders at 300 mg/kg ([1]; 0.5 h, read-out: MES, animals protected/tested) of 100%. For the same compound, the responders at 100 mg/kg ([1]; 1 h, read-out: MES, animals protected/tested) was 0%, the responders at 300 mg/kg ([1]; 4 h, read-out: MES, animals protected/tested) was 0% and the responders at 300 mg/kg ([2]; 0.5 h, read-out: scMet, animals protected/tested) was 0%. For the same compound, the responders at 300 mg/kg ([2]; 4 h, read-out: scMet, animals protected/tested) was 0%, the “Tox, animals exhibiting toxicity/tested” value ([3]; 30 min) was 4/4 and the “Tox, animals exhibiting toxicity/tested” value ([3]; 4 h) was 0/2. For the same compound, the “Tox (rotorod), animals toxic/tested” value ([3]; Phase II, 0.25 h) was 0/2 and the “Tox (rotorod), animals toxic/tested” value ([3]; Phase II, 1.00 h) was 0/2.
In the case of CCc1ccc(NC2=CC(=O)CC(C)(C)C2)cc1 [Compound 140], the minimal effective dose (seizures; Phase I) is reported as over 100 mg/kg, the responders at 300 mg/kg [1, 5] is reported as 0% and the responders at 100 mg/kg [1, 6] is reported as 0%. It also gave a responders at 100 mg/kg [1, 7] of 0%, a responders at 300 mg/kg [1, 8] of 100% and a responders at 300 mg/kg [2, 9] of 0%. The responders at 300 mg/kg [2, 10] was 0% and the “Tox (rotorod), animals toxic/tested” value ([3]; mouse, in vivo) was 0/2.
With COC(=O)C1C(=O)C=C(Nc2ccc(Cl)cc2)CC1(C)C (stereo not shown) [Compound 119] the responders at 50 mg/kg ([4]; 0.5 h, 0.50 h) was 75%, the responders at 50 mg/kg ([4]; 0.25 h) was 100% and the responders at 50 mg/kg ([4]; 1.00 h) was 100%. It also gave a responders at 50 mg/kg ([4]; 2.00 h) of 100%, a responders at 50 mg/kg ([4]; 4.00 h) of 100% and a minimal effective dose (seizures; Phase I) of under 100 mg/kg. It also gave a responders at 100 mg/kg [1, 11] of 100%, a responders at 300 mg/kg [1, 5] of 100% and a responders at 100 mg/kg [1, 12] of 100%. It also gave a responders at 300 mg/kg [1, 8] of 100%, a responders at 100 mg/kg [2, 13] of 0% and a responders at 300 mg/kg [2, 9] of 100%. For the same compound, the responders at 100 mg/kg [2, 14] was 0%, the responders at 300 mg/kg [2, 10] was 100% and the “Tox, animals toxic/tested” value (in vivo) was 0/4.
CCOC(=O)C1C(=O)C=C(Nc2ccc(F)cc2)CC1C (stereo not shown) [Compound 124] showed a responders at 50 mg/kg ([4]; 0.5 h, 0.50 h) of 100%, a responders at 50 mg/kg ([4]; 0.25 h) of 100% and a responders at 50 mg/kg ([4]; 1.00 h) of 100%. It also gave a responders at 50 mg/kg ([4]; 2.00 h) of 100%, a responders at 50 mg/kg ([4]; 4.00 h) of 75% and a minimal effective dose (seizures; Phase I) of under 100 mg/kg. For the same compound, the responders at 100 mg/kg [1, 11] was 100%, the responders at 300 mg/kg [1, 5] was 100% and the responders at 100 mg/kg [1, 12] was 0%. It also gave a responders at 300 mg/kg [1, 8] of 0%, a responders at 100 mg/kg [2, 13] of 0% and a responders at 300 mg/kg ([2]; 0.5 h, 300 mg/kg, 30 min, second trial, read-out: scMet, animals protected/tested (converted)) of 50%. The responders at 300 mg/kg [2, 9] was 100%, the responders at 100 mg/kg [2, 14] was 0% and the responders at 300 mg/kg [2, 10] was 0%. The “Tox, animals toxic/tested” value (in vivo) was 0/4.
In the case of COC(=O)C1C(=O)C=C(Nc2ccc([N+](=O)[O-])cc2)CC1(C)C (stereo not shown) [Compound 118], the minimal effective dose (seizures; Phase I) is reported as over 100 mg/kg, the responders at 300 mg/kg [1, 5] is reported as 0% and the responders at 100 mg/kg [1, 6] is reported as 0%. It also gave a responders at 100 mg/kg [1, 7] of 0%, a responders at 300 mg/kg [1, 8] of 100% and a responders at 300 mg/kg [2, 9] of 0%. The responders at 300 mg/kg [2, 10] was 0% and the “Tox (rotorod), animals toxic/tested” value ([3]; mouse, in vivo) was 0/2.
O=C1C=C(Nc2ccc(C(F)(F)F)cc2)CCC1 [Compound 151] showed a responders at 50 mg/kg ([4]; 0.5 h, 0.50 h) of 25%, a responders at 50 mg/kg ([4]; 0.25 h) of 75% and a responders at 50 mg/kg ([4]; 1.00 h) of 25%. It also gave a responders at 50 mg/kg ([4]; 2.00 h) of 50%, a responders at 50 mg/kg ([4]; 4.00 h) of 0% and a minimal effective dose (seizures; Phase I) of under 100 mg/kg. It also gave a responders at 100 mg/kg [1, 11] of 100%, a responders at 300 mg/kg [1, 5] of 100% and a responders at 100 mg/kg [1, 12] of 0%. For the same compound, the responders at 300 mg/kg [1, 8] was 100%, the responders at 100 mg/kg [2, 13] was 0% and the responders at 300 mg/kg [2, 9] was 0%. For the same compound, the responders at 100 mg/kg [2, 14] was 0%, the responders at 300 mg/kg [2, 10] was 0% and the “Tox, animals toxic/tested” value (in vivo) was 0/4.
